Earlier results in PMC9851200, “Multiparameter phenotypic screening for endogenous TFEB and TFE3 translocation identifies novel chemical series modulating lysosome function” (Autophagy, 2022).

What was measured:
Parameters in all cases: method as in original PKIS2 published data
[1] = target: kinases (KINOMEscan panel) (Homo sapiens, UniProt P07332); conditions: kinase FES; Published KINOMEscan; ref original PKIS2 published data; cited from earlier work
[2] = target: kinases (KINOMEscan panel) (Homo sapiens, UniProt P24941); conditions: CDK2; Published KINOMEscan; ref original PKIS2 published data; cited from earlier work
[3] = target: kinases (KINOMEscan panel) (Homo sapiens, UniProt P49137); conditions: kinase MAPKAPK2; Published KINOMEscan; ref original PKIS2 published data; cited from earlier work
[4] = target: kinases (KINOMEscan panel) (Homo sapiens, UniProt P51617); conditions: kinase IRAK1; Published KINOMEscan; ref original PKIS2 published data; cited from earlier work
[5] = target: kinases (KINOMEscan panel) (Homo sapiens, UniProt P53667); conditions: kinase LIMK1; Published KINOMEscan; ref original PKIS2 published data; cited from earlier work
[6] = target: T1, kinases (KINOMEscan panel) (Homo sapiens, UniProt P54753); conditions: kinase EPHB3; Published KINOMEscan; ref original PKIS2 published data; cited from earlier work
T1 sequence (P54753 34-998): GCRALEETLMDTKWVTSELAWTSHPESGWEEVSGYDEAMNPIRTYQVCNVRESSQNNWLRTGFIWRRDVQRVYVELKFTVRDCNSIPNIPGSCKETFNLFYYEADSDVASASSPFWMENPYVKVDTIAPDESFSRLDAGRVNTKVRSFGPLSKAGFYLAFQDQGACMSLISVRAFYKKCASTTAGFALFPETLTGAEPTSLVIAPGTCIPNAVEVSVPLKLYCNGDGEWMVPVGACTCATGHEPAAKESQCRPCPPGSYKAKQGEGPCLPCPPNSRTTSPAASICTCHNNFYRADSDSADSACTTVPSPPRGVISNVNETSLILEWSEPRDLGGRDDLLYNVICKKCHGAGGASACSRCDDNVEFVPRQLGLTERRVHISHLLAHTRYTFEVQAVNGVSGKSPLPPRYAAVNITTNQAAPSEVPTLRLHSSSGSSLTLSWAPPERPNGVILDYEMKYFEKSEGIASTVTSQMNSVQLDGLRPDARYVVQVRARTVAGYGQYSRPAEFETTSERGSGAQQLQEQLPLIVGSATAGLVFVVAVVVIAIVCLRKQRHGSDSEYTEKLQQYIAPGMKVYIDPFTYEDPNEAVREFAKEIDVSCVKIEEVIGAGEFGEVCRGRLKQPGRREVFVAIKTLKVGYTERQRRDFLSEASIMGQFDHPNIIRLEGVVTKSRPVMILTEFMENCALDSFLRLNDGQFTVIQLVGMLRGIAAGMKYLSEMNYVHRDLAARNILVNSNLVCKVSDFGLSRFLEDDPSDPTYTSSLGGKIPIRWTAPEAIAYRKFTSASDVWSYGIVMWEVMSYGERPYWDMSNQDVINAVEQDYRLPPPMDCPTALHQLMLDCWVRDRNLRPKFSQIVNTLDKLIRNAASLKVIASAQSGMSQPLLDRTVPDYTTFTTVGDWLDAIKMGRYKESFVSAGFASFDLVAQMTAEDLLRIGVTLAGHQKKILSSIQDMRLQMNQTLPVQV

[7] = target: kinases (KINOMEscan panel) (Homo sapiens, UniProt P68400); conditions: CSNK2A1; Published KINOMEscan; ref original PKIS2 published data; cited from earlier work
[8] = target: kinases (KINOMEscan panel) (Homo sapiens, UniProt Q9H422); conditions: kinase HIPK3; Published KINOMEscan; ref original PKIS2 published data; cited from earlier work
[9] = target: kinases (KINOMEscan panel) (Homo sapiens, UniProt Q9HBH9); conditions: MKNK2; Published KINOMEscan; ref original PKIS2 published data; cited from earlier work
[10] = target: T2, kinases (KINOMEscan panel) (Homo sapiens, UniProt Q9UHD2); conditions: TBK1; Published KINOMEscan; ref original PKIS2 published data; cited from earlier work
T2 sequence (Q9UHD2 1-729): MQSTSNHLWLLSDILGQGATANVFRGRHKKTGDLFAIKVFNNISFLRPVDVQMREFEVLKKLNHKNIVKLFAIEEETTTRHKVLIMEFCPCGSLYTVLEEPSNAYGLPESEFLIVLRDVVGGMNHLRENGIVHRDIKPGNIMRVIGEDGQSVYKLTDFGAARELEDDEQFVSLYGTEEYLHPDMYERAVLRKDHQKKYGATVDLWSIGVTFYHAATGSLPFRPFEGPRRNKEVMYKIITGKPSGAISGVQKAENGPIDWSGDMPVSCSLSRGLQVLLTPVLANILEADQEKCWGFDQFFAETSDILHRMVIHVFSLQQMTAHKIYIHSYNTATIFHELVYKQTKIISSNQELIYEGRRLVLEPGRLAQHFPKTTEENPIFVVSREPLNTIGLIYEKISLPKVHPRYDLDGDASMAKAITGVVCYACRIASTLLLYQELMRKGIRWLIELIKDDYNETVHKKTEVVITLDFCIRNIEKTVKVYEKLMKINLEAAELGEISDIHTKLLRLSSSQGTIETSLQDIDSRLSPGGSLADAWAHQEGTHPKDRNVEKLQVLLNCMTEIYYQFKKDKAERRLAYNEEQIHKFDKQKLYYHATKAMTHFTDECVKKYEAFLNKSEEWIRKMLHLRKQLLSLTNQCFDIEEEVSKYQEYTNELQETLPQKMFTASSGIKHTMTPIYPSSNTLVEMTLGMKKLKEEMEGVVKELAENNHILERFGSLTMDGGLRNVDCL

Sequence of kinases (KINOMEscan panel) (Homo sapiens, UniProt Q9HBH9) (Q9HBH9 whole entry): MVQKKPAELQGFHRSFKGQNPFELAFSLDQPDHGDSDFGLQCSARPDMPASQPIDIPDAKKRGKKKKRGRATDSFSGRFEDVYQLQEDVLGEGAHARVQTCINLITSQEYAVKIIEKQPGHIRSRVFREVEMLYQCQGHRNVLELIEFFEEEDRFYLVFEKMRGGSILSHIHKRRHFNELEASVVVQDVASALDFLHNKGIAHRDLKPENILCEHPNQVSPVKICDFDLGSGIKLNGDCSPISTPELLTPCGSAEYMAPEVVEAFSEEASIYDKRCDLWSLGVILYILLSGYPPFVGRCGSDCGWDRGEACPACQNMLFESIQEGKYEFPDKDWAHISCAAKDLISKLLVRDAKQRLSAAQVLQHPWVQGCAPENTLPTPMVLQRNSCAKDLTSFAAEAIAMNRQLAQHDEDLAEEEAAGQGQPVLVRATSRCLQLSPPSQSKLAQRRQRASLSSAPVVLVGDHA
Sequence of kinases (KINOMEscan panel) (Homo sapiens, UniProt P51617) (P51617 whole entry): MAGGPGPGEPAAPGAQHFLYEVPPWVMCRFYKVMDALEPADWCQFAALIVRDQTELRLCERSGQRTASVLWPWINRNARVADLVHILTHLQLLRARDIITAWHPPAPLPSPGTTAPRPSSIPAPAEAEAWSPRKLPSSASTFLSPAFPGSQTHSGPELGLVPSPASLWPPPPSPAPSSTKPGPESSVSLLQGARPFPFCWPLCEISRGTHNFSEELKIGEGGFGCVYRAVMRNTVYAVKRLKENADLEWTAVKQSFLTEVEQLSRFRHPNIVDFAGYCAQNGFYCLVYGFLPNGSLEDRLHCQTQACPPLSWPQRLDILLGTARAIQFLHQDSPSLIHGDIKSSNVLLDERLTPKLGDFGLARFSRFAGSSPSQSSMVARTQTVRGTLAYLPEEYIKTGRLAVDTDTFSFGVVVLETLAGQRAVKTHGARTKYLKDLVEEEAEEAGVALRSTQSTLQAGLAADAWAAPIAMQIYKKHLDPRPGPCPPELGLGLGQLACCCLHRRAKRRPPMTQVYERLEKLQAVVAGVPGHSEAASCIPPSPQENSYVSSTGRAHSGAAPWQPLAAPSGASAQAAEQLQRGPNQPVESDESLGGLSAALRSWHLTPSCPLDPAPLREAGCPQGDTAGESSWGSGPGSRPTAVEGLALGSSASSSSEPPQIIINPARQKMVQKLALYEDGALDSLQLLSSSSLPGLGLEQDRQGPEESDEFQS
Sequence of kinases (KINOMEscan panel) (Homo sapiens, UniProt P49137) (P49137 whole entry): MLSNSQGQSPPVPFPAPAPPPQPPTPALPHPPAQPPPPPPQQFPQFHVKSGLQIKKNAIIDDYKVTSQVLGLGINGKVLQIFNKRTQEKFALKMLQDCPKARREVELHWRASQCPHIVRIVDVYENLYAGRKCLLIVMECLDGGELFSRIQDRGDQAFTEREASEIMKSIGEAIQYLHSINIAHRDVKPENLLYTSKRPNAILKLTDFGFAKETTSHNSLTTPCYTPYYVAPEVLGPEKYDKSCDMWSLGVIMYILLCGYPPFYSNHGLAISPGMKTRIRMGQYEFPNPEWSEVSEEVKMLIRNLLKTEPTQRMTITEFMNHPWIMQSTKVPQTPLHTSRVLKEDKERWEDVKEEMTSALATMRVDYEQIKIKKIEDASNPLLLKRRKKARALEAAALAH
Sequence of kinases (KINOMEscan panel) (Homo sapiens, UniProt Q9H422) (Q9H422 whole entry): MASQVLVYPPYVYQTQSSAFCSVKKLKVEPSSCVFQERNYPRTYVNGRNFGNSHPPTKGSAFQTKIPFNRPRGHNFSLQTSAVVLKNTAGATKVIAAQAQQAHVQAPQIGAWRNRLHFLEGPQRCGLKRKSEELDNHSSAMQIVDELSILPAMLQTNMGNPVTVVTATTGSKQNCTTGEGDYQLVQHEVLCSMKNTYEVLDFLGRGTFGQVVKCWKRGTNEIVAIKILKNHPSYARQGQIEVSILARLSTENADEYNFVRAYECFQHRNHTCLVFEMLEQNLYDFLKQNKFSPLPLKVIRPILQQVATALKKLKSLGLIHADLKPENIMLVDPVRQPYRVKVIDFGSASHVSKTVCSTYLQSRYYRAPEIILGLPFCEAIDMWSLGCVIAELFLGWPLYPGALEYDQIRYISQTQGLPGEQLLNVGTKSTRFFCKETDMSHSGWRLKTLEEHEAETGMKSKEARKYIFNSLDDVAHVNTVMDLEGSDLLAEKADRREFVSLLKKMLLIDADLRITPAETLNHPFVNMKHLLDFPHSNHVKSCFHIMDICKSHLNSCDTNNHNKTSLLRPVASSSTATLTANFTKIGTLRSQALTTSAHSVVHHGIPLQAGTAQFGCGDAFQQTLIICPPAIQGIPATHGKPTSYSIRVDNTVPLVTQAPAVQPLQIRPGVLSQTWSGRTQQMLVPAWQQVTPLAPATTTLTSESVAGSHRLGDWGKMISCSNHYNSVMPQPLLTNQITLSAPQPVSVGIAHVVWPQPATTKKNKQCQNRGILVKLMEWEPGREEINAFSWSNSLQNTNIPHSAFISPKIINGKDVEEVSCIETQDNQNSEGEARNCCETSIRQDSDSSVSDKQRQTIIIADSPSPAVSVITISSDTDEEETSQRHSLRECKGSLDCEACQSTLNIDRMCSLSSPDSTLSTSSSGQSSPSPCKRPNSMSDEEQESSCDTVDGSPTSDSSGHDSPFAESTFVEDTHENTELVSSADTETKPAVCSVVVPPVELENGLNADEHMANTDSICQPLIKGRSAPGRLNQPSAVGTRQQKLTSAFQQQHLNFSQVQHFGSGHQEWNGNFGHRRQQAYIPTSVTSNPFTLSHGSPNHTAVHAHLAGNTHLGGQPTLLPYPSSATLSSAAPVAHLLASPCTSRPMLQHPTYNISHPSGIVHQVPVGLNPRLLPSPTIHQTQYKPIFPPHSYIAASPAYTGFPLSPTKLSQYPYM
Sequence of kinases (KINOMEscan panel) (Homo sapiens, UniProt P53667) (P53667 whole entry): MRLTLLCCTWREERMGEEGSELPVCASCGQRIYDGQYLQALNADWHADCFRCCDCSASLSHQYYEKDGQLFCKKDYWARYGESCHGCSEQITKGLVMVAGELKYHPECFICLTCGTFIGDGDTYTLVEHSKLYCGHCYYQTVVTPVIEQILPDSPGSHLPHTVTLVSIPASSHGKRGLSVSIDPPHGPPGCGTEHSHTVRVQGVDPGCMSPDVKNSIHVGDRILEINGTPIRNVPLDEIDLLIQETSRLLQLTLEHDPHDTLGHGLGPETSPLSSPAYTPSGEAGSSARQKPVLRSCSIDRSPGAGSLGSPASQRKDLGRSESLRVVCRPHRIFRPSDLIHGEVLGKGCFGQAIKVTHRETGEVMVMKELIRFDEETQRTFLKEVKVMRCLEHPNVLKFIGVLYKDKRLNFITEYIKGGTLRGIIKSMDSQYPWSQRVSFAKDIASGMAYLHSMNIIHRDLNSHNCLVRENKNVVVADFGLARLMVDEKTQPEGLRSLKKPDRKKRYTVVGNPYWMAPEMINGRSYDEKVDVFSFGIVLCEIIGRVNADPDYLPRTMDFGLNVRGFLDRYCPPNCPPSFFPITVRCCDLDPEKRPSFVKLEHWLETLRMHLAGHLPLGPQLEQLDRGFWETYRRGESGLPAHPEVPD
Sequence of kinases (KINOMEscan panel) (Homo sapiens, UniProt P07332) (P07332 whole entry): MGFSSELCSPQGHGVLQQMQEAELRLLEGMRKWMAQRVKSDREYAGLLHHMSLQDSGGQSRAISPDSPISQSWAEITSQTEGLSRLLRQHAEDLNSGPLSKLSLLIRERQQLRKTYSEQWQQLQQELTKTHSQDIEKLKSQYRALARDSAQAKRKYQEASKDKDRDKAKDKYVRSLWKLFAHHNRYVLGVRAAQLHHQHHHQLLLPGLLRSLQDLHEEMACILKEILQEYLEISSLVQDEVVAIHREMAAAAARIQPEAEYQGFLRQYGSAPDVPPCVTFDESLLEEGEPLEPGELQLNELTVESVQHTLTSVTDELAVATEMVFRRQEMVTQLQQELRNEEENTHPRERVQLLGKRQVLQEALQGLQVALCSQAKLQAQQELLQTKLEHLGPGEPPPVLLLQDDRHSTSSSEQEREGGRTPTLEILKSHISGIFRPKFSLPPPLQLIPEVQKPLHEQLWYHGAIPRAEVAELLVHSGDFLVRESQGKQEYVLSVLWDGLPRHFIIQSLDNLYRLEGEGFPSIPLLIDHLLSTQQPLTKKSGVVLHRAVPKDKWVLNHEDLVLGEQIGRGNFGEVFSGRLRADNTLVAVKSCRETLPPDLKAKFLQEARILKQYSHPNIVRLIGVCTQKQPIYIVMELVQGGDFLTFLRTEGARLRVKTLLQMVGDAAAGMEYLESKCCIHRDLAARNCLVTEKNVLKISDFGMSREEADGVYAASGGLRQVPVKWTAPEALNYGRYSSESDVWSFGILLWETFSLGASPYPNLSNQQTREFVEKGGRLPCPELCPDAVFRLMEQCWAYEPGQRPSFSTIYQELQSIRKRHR
Sequence of kinases (KINOMEscan panel) (Homo sapiens, UniProt P68400) (P68400 whole entry): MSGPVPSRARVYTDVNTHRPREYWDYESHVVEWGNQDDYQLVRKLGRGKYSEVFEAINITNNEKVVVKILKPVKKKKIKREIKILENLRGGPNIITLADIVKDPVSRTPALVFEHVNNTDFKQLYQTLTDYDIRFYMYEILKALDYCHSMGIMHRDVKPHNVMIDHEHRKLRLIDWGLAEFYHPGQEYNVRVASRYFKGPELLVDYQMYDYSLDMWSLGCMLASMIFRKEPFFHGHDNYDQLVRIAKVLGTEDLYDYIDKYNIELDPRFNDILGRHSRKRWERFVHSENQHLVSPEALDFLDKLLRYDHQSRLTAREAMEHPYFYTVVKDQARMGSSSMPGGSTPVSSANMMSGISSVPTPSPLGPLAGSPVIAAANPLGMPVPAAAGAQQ

Cc1cccc(-c2nc(Nc3ccncc3)c3ccccc3n2)n1 [NK215]
KINOMEscan FES [1]: 13 | KINOMEscan CDK2 [2]: 0 | KINOMEscan MAPKAPK2 [3]: 0 | KINOMEscan IRAK1 [4]: 0 | KINOMEscan LIMK1 [5]: 12 | KINOMEscan EPHB3 [6]: 11 | KINOMEscan CSNK2A1 [7]: 0 | KINOMEscan HIPK3 [8]: 0 | KINOMEscan MKNK2 [9]: 0 | KINOMEscan TBK1 [10]: 41
